Data as given in patent publication US20260078130A1, “NAMPT MODULATORS, PREPARATIONS, AND USES THEREOF” (SIRONAX LTD., priority 2022, published 2026).
pEC50: −log10 of the molar value. Where two headings read alike, the source gives them in different places.

Assays:
[1] = target: T1, human enzyme NAMPT (full length) (Homo sapiens, UniProt P43490); experiment: NMN fluorescence biochemical assay (stimulation of NMN synthesis by NAMPT); settings: for pEC50: concentration giving half-maximal activation, read-out: Enzymatic EC50; for Enzymatic Emax: fold change of maximal activation compared to DMSO
T1 construct: human enzyme NAMPT (full length)
T1 sequence (P43490 whole entry): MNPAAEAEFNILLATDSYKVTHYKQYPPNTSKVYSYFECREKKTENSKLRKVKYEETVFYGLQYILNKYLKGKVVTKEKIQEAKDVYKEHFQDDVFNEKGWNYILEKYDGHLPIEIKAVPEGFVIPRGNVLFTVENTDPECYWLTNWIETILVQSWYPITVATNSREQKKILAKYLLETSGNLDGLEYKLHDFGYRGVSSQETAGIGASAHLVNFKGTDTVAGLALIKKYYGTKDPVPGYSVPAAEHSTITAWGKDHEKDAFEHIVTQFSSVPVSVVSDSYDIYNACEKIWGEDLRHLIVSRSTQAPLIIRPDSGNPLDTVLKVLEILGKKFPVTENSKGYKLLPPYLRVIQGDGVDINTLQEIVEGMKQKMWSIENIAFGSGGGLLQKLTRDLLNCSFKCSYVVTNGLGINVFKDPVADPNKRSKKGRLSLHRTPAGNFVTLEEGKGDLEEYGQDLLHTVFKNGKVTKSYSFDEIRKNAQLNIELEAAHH
In short: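 Full-length human NAMPT (100 nM) was preincubated 15 min at 37 °C with compound in 50 mM Tris-HCl pH 7.5, 10 mM MgCl2, 2 mM DTT, then reacted 1 h at 37 °C with 50 μM NAM, 100 μM PRPP, 4 mM ATP (stated solution concentrations). NMN was derivatised with acetophenone/KOH then formic acid and read at Ex/Em 382/445 nm; EC50 and Emax (fold over DMSO) reported.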

[2] = tested on: endogenous NAMPT in U2OS cells; experiment: Cellular NAD+ modulation assay (NAD/NADH-Glo, U2OS cells); format: cell-based; settings: Homo sapiens; for maximal fold induction: read-out: Cellular Emax
In short: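 NAD/NADH-Glo luminescence quantified NAD+ after acid treatment (60 °C, 15 min) and neutralization of DTAB lysates. Beforehand, U2OS cells seeded 16 h earlier received compound concentration series for 24 h at 37 °C. Values given as half-maximal activation concentration (EC50) and maximal fold change versus DMSO (Emax).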

[3] = NMN synthesis by purified human NAMPT (100 nM)
[4] = 24 hours incubation with compound
[5] = NMN fluorescence assay, purified human NAMPT 100 nM
[6] = 24 hours incubation, cellular NAD+

Row | Structure (SMILES) | pEC50 [1, 3] | Enzymatic Emax [1] | pEC50 [2, 4] | pEC50 [1, 5] | pEC50 [2, 6] | maximal fold induction [2, 4] | maximal fold induction [2, 6]
1 | COC1CN(c2ccc3c(c2)C(C)N(Cc2ccc4[nH]c(=O)oc4c2)C3=O)C1 (stereo not shown) [Compound 128, 6-((5-(3-methoxyazetidin-1-yl)-3-methyl-1-oxoisoindolin-2-yl)methyl)benzo[d]oxazol-2(3H)-one] | ≤ 5.30 | B (3≥B>2) | 5.30 to 6.30 | – | – | > 1.5 | –
2 | Cn1ncc(Cl)c1CC1c2cc(C3CC3)ccc2C(=O)N1CC1CC2(CNC(=O)O2)C1 (stereo not shown) [Compound 311, 2-((3-((4-chloro-1-methyl-1H-pyrazol-5-yl)methyl)-5-cyclopropyl-1-oxoisoindolin-2-yl)methyl)-5-oxa-7-azaspiro[3.4]octan-6-one] | 5.30 to 6.30 | B (3≥B>2) | > 6.30 | – | – | > 1.5 | –
3 | Cc1cccc(CC2c3ccccc3C(=O)N2Cc2ccc3[nH]c(=O)oc3c2)n1 (stereo not shown) [Compound 158, 6-((1-((6-methylpyridin-2-yl)methyl)-3-oxoisoindolin-2-yl)methyl)benzo[d]oxazol-2(3H)-one] | ≤ 5.30 | A (A>3) | 5.30 to 6.30 | – | – | > 1.5 | –
4 | Cn1ncc(Cl)c1CC1c2cc(Cl)ccc2C(=O)N1Cc1ccc2[nH]nnc2c1 (stereo not shown) [Compound 354, 2-((1H-benzo[d][1,2,3]triazol-5-yl)methyl)-5-chloro-3-((4-chloro-1-methyl-1H-pyrazol-5-yl)methyl)isoindolin-1-one] | – | A (A>3) | – | > 6.30 | > 6.30 | – | > 1.5
5 | N#Cc1cccnc1CC1c2ccccc2C(=O)N1Cc1ccc2[nH]c(=O)oc2c1 (stereo not shown) [Compound 257, 2-((3-oxo-2-((2-oxo-2,3-dihydrobenzo[d]oxazol-6-yl)methyl)isoindolin-1-yl)methyl) nicotinonitrile] | 5.30 to 6.30 | A (A>3) | > 6.30 | – | – | > 1.5 | –
6 | O=C1c2ccc(N3CCCC3)cc2C(=O)N1Cc1ccc(O)cc1 [Compound 36, 2-(4-hydroxybenzyl)-5-(pyrrolidin-1-yl)isoindoline-1,3-dione] | 5.30 to 6.30 | A (A>3) | 5.30 to 6.30 | – | – | 1.2 to 1.5 | –
7 | CC1c2ccccc2C(=O)N1Cc1ccc(O)cc1 (stereo not shown) [Compound 31, 2-(4-hydroxybenzyl)-3-methylisoindolin-1-one] | 5.30 to 6.30 | A (A>3) | 5.30 to 6.30 | – | – | > 1.5 | –
8 | O=C1c2ccccc2C(Cc2cccnc2)N1Cc1ccc2[nH]c(=O)oc2c1 (stereo not shown) [Compound 137, 6-((1-oxo-3-(pyridin-3-ylmethyl)isoindolin-2-yl)methyl)benzo[d]oxazol-2(3H)-one] | 5.30 to 6.30 | B (3≥B>2) | > 6.30 | – | – | > 1.5 | –
9 | Cc1c(CN2C(=O)c3ccccc3C2Cc2ncccc2Br)ccc2[nH]c(=O)oc12 (stereo not shown) [Compound 349, 6-((1-((3-bromopyridin-2-yl)methyl)-3-oxoisoindolin-2-yl)methyl)-7-methylbenzo[d]oxazol-2(3H)-one] | – | A (A>3) | – | 5.30 to 6.30 | 4.30 to 5.30 | – | > 1.5
10 | O=C1c2ccccc2C(Cc2ncccc2Br)N1CC1CCc2[nH]nnc2C1 (stereo not shown) [Compound 332, 3-((3-bromopyridin-2-yl)methyl)-2-((4,5,6,7-tetrahydro-1H-benzo[d][1,2,3]triazol-5-yl)methyl)isoindolin-1-one] | – | A (A>3) | – | 5.30 to 6.30 | > 6.30 | – | > 1.5
11 | O=C1c2ccccc2C(Cc2nccs2)N1Cc1ccc2[nH]c(=O)oc2c1 (stereo not shown) [Compound 140, 6-((1-oxo-3-(thiazol-2-ylmethyl)isoindolin-2-yl)methyl) benzo[d]oxazol-2(3H)-one] | ≤ 5.30 | A (A>3) | 5.30 to 6.30 | – | – | > 1.5 | –
12 | O=c1[nH]c2ccc(Cn3c(=O)c4ccccc4n3Cc3ccccc3C(F)(F)F)cc2o1 [Compound 141, 6-((3-oxo-1-(2-(trifluoromethyl)benzyl)-1,3-dihydro-2H-indazol-2-yl)methyl)benzo[d]oxazol-2(3H)-one] | 5.30 to 6.30 | B (3≥B>2) | 5.30 to 6.30 | – | – | > 1.5 | –
13 | Cn1c2ccccc2c(=O)n1Cc1ccc2[nH]nnc2c1 [Compound 301, 2-((1H-benzo[d][1,2,3]triazol-5-yl)methyl)-1-methyl-1,2-dihydro-3H-indazol-3-one] | ≤ 5.30 | C (2≥C) | 4.30 to 5.30 | – | – | 1.2 to 1.5 | –
14 | CC1c2ccccc2C(=O)N1Cc1ccc(NC(=O)NCc2ccncc2)cc1 (stereo not shown) [Compound 291, 1-(4-((1-methyl-3-oxoisoindolin-2-yl)methyl)phenyl)-3-(pyridin-4-ylmethyl)urea] | > 6.30 | C (2≥C) | > 6.30 | – | – | 1.2 to 1.5 | –
15 | Cc1cccnc1CC1c2ccccc2C(=O)N1Cc1ccc2[nH]c(=O)oc2c1 (stereo not shown) [Compound 176, 6-((1-((3-methylpyridin-2-yl)methyl)-3-oxoisoindolin-2-yl)methyl)benzo[d]oxazol-2(3H)-one] | > 6.30 | A (A>3) | 5.30 to 6.30 | – | – | > 1.5 | –

Now from value to compound, other results behind:

Row | pEC50 [1, 3] | Enzymatic Emax [1] | pEC50 [2, 4] | pEC50 [1, 5] | pEC50 [2, 6] | Structure (SMILES) | maximal fold induction [2, 4] | maximal fold induction [2, 6]
16 | – | B (3≥B>2) | – | > 6.30 | > 6.30 | Cc1cccc2c1C(=O)N(CC1CC3(CNC(=O)O3)C1)C2Cc1c(Cl)cnn1C (stereo not shown) [Compound 460, 2-((1-((4-chloro-1-methyl-1H-pyrazol-5-yl)methyl)-4-methyl-3-oxoisoindolin-2-yl)methyl)-5-oxa-7-azaspiro[3.4]octan-6-one] | – | > 1.5
17 | – | B (3≥B>2) | – | ≤ 5.30 | > 6.30 | Cn1ncc(Cl)c1CC1c2ccccc2C(=O)N1Cc1c[nH]nn1 (stereo not shown) [Compound 637, 2-((1H-1,2,3-triazol-4-yl)methyl)-3-((4-chloro-1-methyl-1H-pyrazol-5-yl)methyl)isoindolin-1-one] | – | 1.2 to 1.5
18 | – | B (3≥B>2) | – | > 6.30 | > 6.30 | Cc1ccnc(Br)c1CC1c2ccccc2C(=O)N1C/C=C/c1c[nH]nn1 (stereo not shown) [Compound 380, (E)-2-(3-(1H-1,2,3-triazol-4-yl)allyl)-3-((2-bromo-4-methylpyridin-3-yl)methyl) isoindolin-1-one] | – | > 1.5
19 | – | A (A>3) | – | > 6.30 | 5.30 to 6.30 | CN1CC(c2nn(C)c(CC3c4ccccc4C(=O)N3CC3CC4(CNC(=O)O4)C3)c2Cl)C1 (stereo not shown) [Compound 509, 2-((1-((4-chloro-1-methyl-3-(1-methylazetidin-3-yl)-1H-pyrazol-5-yl)methyl)-3-oxoisoindolin-2-yl)methyl)-5-oxa-7-azaspiro[3.4]octan-6-one] | – | > 1.5
20 | – | B (3≥B>2) | – | ≤ 5.30 | > 6.30 | Cc1noc2cc(CN3C(=O)c4ccccc4C3Cc3c(Cl)cnn3C)ccc12 (stereo not shown) [Compound 594, 3-((4-chloro-1-methyl-1H-pyrazol-5-yl)methyl)-2-((3-methylbenzo[d]isoxazol-6-yl)methyl)isoindolin-1-one] | – | 1.2 to 1.5
21 | – | B (3≥B>2) | – | > 6.30 | > 6.30 | Cn1ncc(Cl)c1CC1c2cc(OC(F)F)ccc2C(=O)N1Cc1ccc2[nH]nnc2c1 (stereo not shown) [Compound 421, 2-((1H-benzo[d][1,2,3]triazol-5-yl)methyl)-3-((4-chloro-1-methyl-1H-pyrazol-5-yl)methyl)-5-(difluoromethoxy)isoindolin-1-one] | – | > 1.5
22 | – | B (3≥B>2) | – | > 6.30 | > 6.30 | Cc1ccnc(C#N)c1CC1c2cc(C3CC3)ccc2C(=O)N1Cc1ccc2[nH]nnc2c1 (stereo not shown) [Compound 360, 3-((2-((1H-benzo[d][1,2,3]triazol-5-yl)methyl)-6-cyclopropyl-3-oxoisoindolin-1-yl)methyl)-4-methylpicolinonitrile] | – | > 1.5
23 | – | B (3≥B>2) | – | ≤ 5.30 | 5.30 to 6.30 | Cn1ncc(Cl)c1CC1c2ccccc2C(=O)N1Cc1cc(=O)[nH]o1 (stereo not shown) [Compound 602, 5-((1-((4-chloro-1-methyl-1H-pyrazol-5-yl)methyl)-3-oxoisoindolin-2-yl)methyl)isoxazol-3(2H)-one] | – | > 1.5
24 | – | A (A>3) | – | > 6.30 | 5.30 to 6.30 | Cn1ncc(Cl)c1CC1c2ccccc2C(C)(C)N1Cc1ccc2[nH]nnc2c1 (stereo not shown) [Compound 608, 5-((3-((4-chloro-1-methyl-IH-pyrazol-5-yl)methyl)-1,1-dimethylisoindolin-2-yl)methyl)-1H-benzo[d][1,2,3]triazole] | – | > 1.5
25 | – | A (A>3) | – | 5.30 to 6.30 | 5.30 to 6.30 | Cn1ncc(Cl)c1CC1c2cc(C3CN(C(=O)OC(C)(C)C)C3)ccc2C(=O)N1CC1CC2(CNC(=O)O2)C1 (stereo not shown) [Compound 514, tert-butyl 3-(3-((4-chloro-1-methyl-1H-pyrazol-5-yl)methyl)-1-oxo-2-((6-oxo-5-oxa-7-azaspiro[3.4]octan-2-yl)methyl)isoindolin-5-yl)azetidine-1-carboxylate] | – | > 1.5
